Source: US20250090626A1, “NEW PEPTIDE AND USES THEREOF” (Neo Cremar Co., Ltd., priority 2021, published 2025)
No end group written: not given here.

Assays:
Format in all cases: cell-based, mouse
[1] = tested on: C2C12 cells; assay: mRNA expression of myodifferentiation and sarcopenia factors (real-time PCR); conditions: C2C12 myodifferentiation, peptide-treated vs untreated
Method: After adding 1 ml of TRIzol™ reagent, the cells were crushed using a sonicator. After centrifugation of the crushed sample (12,000 rpm, 10 min, 4° C.), the supernatant was transferred to a new tube, added with 200 μl of chloroform, and left at room temperature for 10 minutes. After 10 minutes, centrifugation (12,000 rpm, 10 min, 4° C.) was performed, yielded a transparent supernatant. Next, 500 μl of isopropanol was added, the mixture was left for 10 minutes, and centrifugation was performed to obtain RNA pellets. After washing by adding 70% ethanol (distilled water treated with ethanol+diethylpyrocarbonate (hereinafter referred to as DEPC)) to the RNA pellets, complete removal and drying were followed. The dried transparent RNA was added with DEPC-treated distilled water and then stored at −80° C. Total RNA volume was measured by nanodrop, and the 18s and 28s bands were detected in 1.2% agarose gel. cDNA was synthesized with 2 μg of total RNA, random hexamer primers, and reverse transcriptase (25° C.: 10 min, 37° C.: 120 min, 85° C.: 5 min).
Real-time PCR (RT-PCR) was performed for detecting gene expression. For observation of real-time gene expression, gene expression was analyzed using the Power SYBR Green PCR Master Mix, which includes fluorescent materials of SYBR green (7500 Real-time PCR system). The PCR primer was designed with Primer 3 software (http://frodo.wi.mit.edu) according to the nucleotide sequence secured from NCBI GenBank. PCR was performed 40 times at 95° C. for 10 minutes, again at 95° C. for 33 seconds, at gene primer temperature (tm) for 33 seconds, and at 72° C. for 33 seconds. Gene expression values were analyzed through the analysis of c(t) values obtained through real-time PCR analysis (fold change 2-^ΔΔCt formula). Setting the gene expression value of the untreated cells to 1, the gene expression value of the treated cells was calculated. In the analysis of gene c(t) values, normalization was conducted with the glyceraldehyde-3-phosphate dehydrogenase (GAPDH).

[2] = tested on: C2C12 cells; assay: Protein expression of myodifferentiation and sarcopenia factors (Western blot, immunocytochemistry); conditions: C2C12 myodifferentiation, peptide-treated vs untreated
Method: The medium of cultured C2C12 cells was removed and washed once with PBS. The washed cells were treated with 4% formaldehyde (Sigma), fixed for 15 minutes, then washed using PBS, added with 0.2% trypton X-100 (Sigma), and left for 5 minutes. After washing again using PBS, adding 1% normal goat serum, and leaving for 30 minutes, the primary antibody (MYOD, myogenin (MYOG):myosin light chain (MYL2); 1:50) was added to carry out a reaction at 4° C. for 14 hours. The antibodies were removed, washing was performed 3 times with PBS for 10 minutes, and then the cells were left with secondary antibody (Alexa Fluor 488 goat anti-Mouse & rabbit SFX kit t) for 1 hour. After 1 hour, the antibodies were removed, washing was performed with PBS for 10 minutes, the nuclei were stained with 4′,6-diamidino-2-phenylindol (DAPI), and the expression of the proteins was observed using fluorescence microscopy.
(1) The medium of cultured C2C12 cells was removed, followed by washing with PBS. After adding LIPA buffer and protease inhibitor to the washed cells, the proteins included in the supernatant were collected after centrifugation for 10 minutes at 12000 rpm. 40 μg of the extracted proteins were subjected to electrophoresis in 8 to 10% acrylamide gel and then transferred to a polyvinylidene fluoride (PVDF) membrane (Milipore). These were blocked with 3% skim milk or bovine serum albumin (BSA) at room temperature for 1 hour. Afterwards, primary antibody diluted in 1% skim milk or BSA (Pax7; 1:500, MYOD; 1:500, MYOG; 1:400, MYL2; 1:1000, MYH; 1:500, MSTN; 1:1000, β-actin; 1:1000, MuRF1; 1:400, and Atrogin; 1:1:400) was added and reacted at 4° C. for over 16 hours. After 16 hours, cells were washed three times with TBST (Tris-buffered saline with Tween 20) and reacted with secondary antibody with horseradish peroxidase (HRP) conjugated at room temperature for 1 hour. It was washed three times with TBST and developed after adding Super Signal West Pico Chemiluminescent Substrate.

[3] = tested on: 3T3L1 cells; assay: Adipodifferentiation of 3T3L1 cells, Oil red O staining; conditions: 3T3L1, adipocyte-induced differentiation medium with Ac-MIF1, 4 days; FIG. 13B
Method: For differentiation of 3T3L1 cells into adipocytes, when the cells grew about 100% or more, they were replaced with differentiation medium (DMEM+10% FBS+1% P/S+10 ug/ml insulin+1 μM dexametazone+0.5 μM IBMX (3-isobutyl-1-methylxanthine)) and cultured for 2 days. After 2 days, MIF was treated in a medium including 10 ug/ml insulin to induce cell differentiation.
3T3L1 cells were treated with peptides and differentiated for 4 days, then the medium was removed, and the cells were washed with normal saline, treated with 10% formaldehyde, and left for 10 minutes. After 10 minutes, Oil-red O staining agents (6 ([…] Oil-red O reagent+1 ml 100% isopropanol):4 (distilled water)) were treated and left for 1 hour. After 1 hour, cells were washed with normal saline and then observed under a microscope. To measure the Oil-red O stained in the intracellularly differentiated cells, 100% isopropanol was added and collected, followed by measurement at 510 nm.

“Ac-VDFEAFWDWG [Ac-MIF1, MIF1 with N-terminus acetylated, 10 mer]” was tested, and the “MYL2 mRNA expression” value [1] was “increased”, the “MYOD mRNA expression” value [1] was “increased” and the ACVRIIB protein expression [2] was “reduced”. The Atrogin1 protein expression [2] was “reduced”, the MSTN protein expression [2] was “reduced” and the MYH protein expression [2] was “increased”. For the same substance, the MYOD protein expression [2] was “increased”, the MYOG protein expression [2] was “increased” and the “fat accumulation (Oil-red O intensity), decrease compared to cells without peptide treatment” value [3] was 8%.
